Tests used:
[1] = Inverse transport (basolateral to apical, B → A) across hBLECs and efflux ratio; type: in vitro ADME, human; conditions: human, pH 7.4; 50 μM in basolateral compartment, 60 min (Figure 7)
Protocol: For the inverse transport study (related to basolateral → apical flux, B → A), 1.5 mL of 1 × 10^6 dpm of tritiated [^3H]OligoGM1 plus 50 μM OligoGM1 in RH buffer were added to an empty well of a 12-well plate (Figure S3c). Every 20 min up to 60 min, the hBLEC filter filled with 0.5 mL RH buffer was removed and replaced with a new filter with fresh RH buffer.
The apparent permeability, efflux ratio, and endothelial permeability were calculated to estimate the absorption processes of drugs, to predict implication of active transport in the process of drugs absorption, and to more accurately appreciate the transport of a drug across an endothelial barrier, respectively. Detailed information on the equations used to calculate the permeability parameters are reported in the Supplementary Information. […]
where (∆Q/∆t) (μmol/sec) is the rate of permeation (quantity per second) of a molecule across the cell layer, C0 (μmol/cm3) is the donor compartment concentration at time zero and S (cm2) is the area of […]
In the transwell insert system there are two compartments and, analyzing the absorption of a substance, the apparent permeability index can be obtained for the apical to basolateral transport, Papp A → B, and for the inverse, basolateral to apical transport Papp B → A.
To define Papp (1), the Fick's law could be used, which describes the transport of substances through a semipermeable membrane. Given that the initial concentration of the solute in the donor compartment is much higher than the one in the receiver compartment (equal to 0 at t0), and assuming that the solute equally partitions in the two compartments, for small variation of C0, it is possible to integrate and simplify the Fick’s equation to obtain as follows: […]
where ∆Q/∆t corresponds to the amount of solute that crosses the membrane over time, D is the diffusion coefficient of the substance in water, S is the membrane surface, h its thickness and C0 is the concentration of the solute which approximates the initial concentration C0.
The equation (2) can be rewritten as: […]

N2a cells = assay: N2a differentiation by hBLEC-crossed OligoGM1 (morphology); type: cell-based, mouse; conditions: basolateral solution (~25 μM), 24 h
Protocol: For differentiation experiments, N2a cells were seeded at 5 × 10^3/cm^2 and incubated for 24 h in regular culture condition to allow cell attachment. Before all treatments, growth medium was removed and cells were adapted for 30 min in pre-warmed (37 °C) Transfectagro medium containing 2% heat-inactivated FBS, 1% L-glutamine, and 1% penicillin/streptomycin solution. All treatments were conducted at 37 °C in a humidified atmosphere of 95% air/5% CO2.
Precisely, [^3H]OligoGM1 (1 × 10^6 dpm) diluted into cold OligoGM1 solution (300 µM) was administered for 240 min to hBLECs in the upper compartment so that at a volume of 0.5 mL there was 150 nmol of OligoGM1. […] After the 240 min incubation period, the basolateral solution was screened to find the quantity of crossed OligoGM1 by measuring ^3H-radioactivity and was then administered to N2a cells for 24 h. […] Morphological signals of neurodifferentiation were evaluated by cell observation and TrkA-ERK1/2 pathway activation was verified by immunoblotting (for procedural details see Supplementary Materials and [22, 23]). […]
Since mycoplasma could infect of Caco-2 cells, we validated the absence of any contamination by two methods (data not shown). […] Briefly culture supernatants were mixed with MycoAlert reagents according to manufacturer instruction and the luminescence was measured after 10 min using fluorimeter (BioTek, H1, Vermont, Winooski). […]

SMILES: CC(=O)NC1C(O)CC(OC2C(O)C(OC3C(CO)OC(O)C(O)C3O)OC(CO)C2OC2OC(CO)C(O)C(OC3OC(CO)C(O)C(O)C3O)C2NC(C)=O)(C(=O)O)OC1C(O)C(O)CO (stereo not drawn) [OligoGM1, β-Gal-(1-3)-β-GalNAc-(1-4)-[α-Neu5Ac-(2-3)]-β-Gal-(1-4)-β-Glc]
- Papp B→A at 60 min, 50 μM [1]: 8.7 ± 1.4 ×10⁻⁶ cm/s
- N2a cell morphology / neurite sprouting (N2a cells): induced a neuron-like morphology

— paper PMC7215935, “GM1 Oligosaccharide Crosses the Human Blood–Brain Barrier In Vitro by a Paracellular Route” (International Journal of Molecular Sciences, 2020)
